Laboratory results taken from patent publication US6368788B1 (priority 1987, dated 2002).
Where “and” joins values, the source holds several entries; their conditions need not be identical. Equal entries are not always repeated. Marks after values point to notes of the source that are not given here.

Columns and labels:
[1] = system: E-receptors on aged thymocytes; assay: Expression of E-receptors on aged thymocytes; type: cell-based, guinea pigs; details: for E-RFC (%): aged thymocytes
From the text: Effects of L-Glu-L-Trp on expression of E-receptors on “aged” thymocytes was investigated in a manner similar to that in EXAMPLE 26, above, but using thymocytes obtained from old male guinea pigs (700-800 g). In aged animals it is recognized that the percentage of thymocytes forming rosettes with rabbit erythrocytes is reduced, and cell surface E-receptors are likewise reduced. For these studies aged thymocytes were isolated in Medium 199 from 42 guinea pigs, and E-RFC determined as described by Stadecker, M. J., et al., J. Immunol. 111(8):4061-4065 (1973), incorporated herein by reference. L-Glu-L-Trp was dissolved in 0.9% (w/v) NaCl and added to cultures of thymocytes at concentrations of 1, 0.01, and 0.0001 mg/ml.

Dengue virus = assay: Dengue Protocol B; parameters: species or system human; details: in vivo
Protocol: Sixty Dengue virus infected patients (60) were entered into the trial; 36 were treated with L-Glu-L-Trp and 24 were treated using conventional therapy (i.e., controls).

[2] = DTH sensitization to Oxazolone (ear thickness); type: in vivo, mice; details: for Mean Ear Thickness ± S.D.: challenge day 7, measured at 24 hours
Protocol: Effects of L-Glu-L-Trp treatments on cell mediated immunity were evaluated by testing its effects on induction of a delayed-type hypersensitivity response in two different studies involving sensitization of mice to Oxazolone and guinea pigs to tuberculin.
In the first study L-Glu-L-Trp was administered ip at a dose of 10 μg/kg, or 1000 μg/kg one hour before a sensitizing dose of Oxazolone (0.1 mL of a 5% solution) was applied to the abdominal surface of a mouse. Seven days later skin sensitivity was measured by administering 25 μL of a 2% oxazolone solution to the right mouse ear and a sample of the diluent solution, as a control, to the left ear. Ear thickness was measured at 24 hours using a Dyer Model micrometer.

neutrophils = assay: Neutrophil response to proteose peptone and phagocytic activity in CBA mice; type: in vivo; details: for Phagocytes (%) / Phagocytic Index: induced neutrophils; for Total Number of Cells Induced: neutrophil response to proteose peptone
[3] = system: E-rosette forming (CD2^+) T-lymphocytes; assay: In vitro incubation of the children's lymphocytes: E-rosette forming (CD2+) T-lymphocytes; type: cell-based, human
[4] = system: peripheral blood leukocytes; assay: Peripheral blood leukocytes in cortisone suppressed rats; type: in vivo; details: for Basophils (% of Normal Control Value) / Basophils: % / Basophils: Total Cells / Eosinophils (% of Normal Control Value) / Eosinophils: % / Eosinophils: Total Cells / Leukocytes (% of Normal Control Value) / Leukocytes: Total Cells / Lymphocytes (% of Normal Control Value) / Lymphocytes: % / Lymphocytes: Total Cells / Monocytes (% of Normal Control Value) / Monocytes: % / Monocytes: Total Cells / Segmented Neutrophils (% of Normal Control Value) / Segmented Neutrophils: % / Segmented Neutrophils: Total Cells / Stab Neutrophils (% of Normal Control Value) / Stab Neutrophils: % / Stab Neutrophils: Total Cells: cortisone suppressed rats, 10 μg/kg im
Protocol: An immunocompromised state was established over a period of 80 days in experimental rats by administration of cortisone acetate at a dosage of 25 mg/kg twice weekly with tetracycline hydrocholoride po in drinking water. In the experimental group, L-Glu-L-Trp was administered in three treatment courses, each course consisting of 10 daily im injections of 10 μg/kg or 100 μg/kg, and each course of treatment separated from the next course by a 1 month interval. In the control group, saline was administered in the same three treatment course schedule. Differential blood counts were conducted on day 0 (Normal Control), day 59, and day 79 of the study. […] Results obtained with the 10 μg/kg treatment dose (presented in TABLE 73) were not markedly different than those obtained with the 100 μg/kg dose.

[5] = psoriasis Group 1, after L-Glu-L-Trp Therapy (n = 30)
[6] = psoriasis, after Combination L-Glu-L-Trp Therapy (n = 30)
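Throughout, for Patients with improvement: psoriasis patients, 30 per group, with disease activity tracked through laboratory and clinical measures, set against a group receiving traditional therapy alone.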
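Throughout, for Patients with significant improvement: psoriasis patients, 30 per group, with disease activity tracked through laboratory and clinical measures, set against a group receiving traditional therapy alone.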
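Throughout, for Patients with total recovery: psoriasis patients, 30 per group, with disease activity tracked through laboratory and clinical measures, set against a group receiving traditional therapy alone.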
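Throughout, for Shorter length of hospital stay vs Group 2: psoriasis patients, 30 per group, with disease activity tracked through laboratory and clinical measures, set against a group receiving traditional therapy alone.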

Substance: L-Glu-L-Trp
- Patients with improvement (10 days): 7%
- Patients with significant improvement (10 days): 60%
- Patients with total recovery (10 days): 33%
- Shorter length of hospital stay vs Group 2 (average): 4.2 days
- Decrease in erythema of skin eruptions sooner than controls (in vivo): 2.8 days
- Disappearance of psoriatic rash sooner than controls (in vivo): 7.1 days
- Earlier recovery of disease activity than conventional therapy (in vivo): 2 to 3 days
- C3 complement [5]: 926 ± 28.4 µg/mL
- Ceruloplasmin [5]: 366 ± 11.4 µg/mL
- Clotting time (citrated whole blood-recalcified) [5]: 141 ± 2.4
- FDP [5]: 23 ± 1.8 µg/mL
- Fibrinogen Concentration [5]: 3.4 ± 0.1 g/L
- Fibrinolytic Activity [5]: 200 ± 2.7 min
- Kaolin-Cephalin clotting time [5]: 58 ± 0.3
- Orosomucoid [5]: 829 ± 13.2 µg/mL
- PT [5]: 23 ± 0.2
- Prealbumin [5]: 357 ± 3.8 µg/mL
- Thrombotest [5]: 33 ± 0.5 units
- Transferrin [5]: 3.36 ± 0.08 µg/mL
- α2-macroglobulin [5]: 2.5 ± 0.01
- Number of Patients Having a Clinical Outcome as: Considerable Improvement (psoriasis Group 1, day 8-10): 18/30
- Number of Patients Having a Clinical Outcome as: Improvement (psoriasis Group 1, day 8-10): 2/30
- Number of Patients Having a Clinical Outcome as: No Improvement (psoriasis Group 1, day 8-10): 3/30
- Number of Patients Having a Clinical Outcome as: Recovery (psoriasis Group 1, day 8-10): 7/30
- Patients with Considerable Improvement (%) (psoriasis Group 1, day 8-10): (60%)
- Patients with Improvement (%) (psoriasis Group 1, day 8-10): (7%)
- Patients with No Improvement (%) (psoriasis Group 1, day 8-10): (10%)
- Patients with Recovery (%) (psoriasis Group 1, day 8-10): (23%)
- B-Lymphocytes [6]: 0.53 ± 0.02 ×10^9/L
- B-Lymphocytes % Normal Value [6]: (115%)
- IgA [6]: 138 ± 6.8
- IgA % Normal Value [6]: (140%)
- IgG [6]: 187 ± 1.9 mg/mL
- IgG % Normal Value [6]: (140%)
- IgM [6]: 193 ± 9.6
- IgM % Normal Value [6]: (152%)
- Leukocytes [6]: 9.0 ± 1.4 ×10^9/L
- Leukocytes % Normal Value [6]: (155%)
- Lymphocytes [6]: 2.5 ± 0.09 ×10^9/L
- Lymphocytes % Normal Value [6]: (144%)
- T-Lymphocytes [6]: 0.94 ± 0.07 ×10^9/L
- T-Lymphocytes % Normal Value [6]: (106%)
- Percentage of E-RFC ([1]; 1 mg/mL): statistically significant increase in the percentage of E-RFC
- E-RFC (%) ([1]; Conc. 0.0001 mg/ml): 50.3 ± 4.2%
- E-RFC (%) ([1]; Conc. 0.01 mg/ml): 47.8 ± 3.9%
- E-RFC (%) ([1]; Conc. 1 mg/ml): 54.6 ± 4.2 %
- Clinical outcome (Dengue virus): reduction of fever, more rapid reduction of toxic symptoms
- Mean Ear Thickness ± S.D. ([2]; 10 μg/kg ip one hour before Oxazolone sensitization): 17 ± 1 μm
- DTH sensitivity ([2]; 1000 μg dose one hour prior to antigen): increase in DTH sensitivity to oxazolone
- Mean Ear Thickness ± S.D. ([2]; 1000 μg/kg ip one hour before Oxazolone sensitization): 24 ± 1 μm
- Exudate cell concentration (neutrophils; 0.01 mg/kg): 0.9×10^6
- Neutrophil migration and phagocytic activity (neutrophils; 0.01 mg/kg): did not appear to stimulate neutrophil migration
- Increase in percentage of phagocytic cells (neutrophils; 1 mg/kg, six day ip pretreatment): 1.5 fold and 1.7 fold
- Phagocytes (%) (neutrophils; 0.1 mg/kg (so in the source)): 17.8 ± 1.13%
- Phagocytic Index (neutrophils; 0.1 mg/kg (so in the source)): 1.90 ± 0.05 No. bacteria/phagocyte
- Phagocytes (%) (neutrophils; 1 mg/kg): 31.5 ± 0.4 %
- Phagocytic Index (neutrophils; 1 mg/kg): 1.89 ± 0.03 No. bacteria/phagocyte
- Number of neutrophils induced by proteose peptone (neutrophils; ip pretreatment (0.1 mg/kg)): doubled
- Total Number of Cells Induced (neutrophils; 0.01 mg/kg ip pretreatment): 50 ×10^6
- Total Number of Cells Induced (neutrophils; 1 mg/kg ip pretreatment): 80* ×10^6
- Neutrophils, Phagocytic Index (neutrophils; treated mice, sterile inflammatory agent): ns
- Percentage of E-rosette forming (CD2+) T-lymphocytes [3]: increase in the percentage of E-rosette forming (CD2^+) T-lymphocytes
- Peripheral blood cells vs saline treated controls ([4]; 10 μg/kg and 100 μg/kg): increased the number of leukocytes, monocytes, and lymphocytes in the peripheral blood of cortisone-suppressed rats
- Basophils (% of Normal Control Value) ([4]; Day 59): (71%)
- Basophils: % ([4]; Day 59): 0.4 ± 0.2%
- Basophils: Total Cells ([4]; Day 59): 0.05 ± 0.03 × 10^3/mg
- Eosinophils (% of Normal Control Value) ([4]; Day 59): (150%)
- Eosinophils: % ([4]; Day 59): 4.3 ± 0.4 %
- Eosinophils: Total Cells ([4]; Day 59): 0.6 ± 0.1 × 10^9/L
- Leukocytes (% of Normal Control Value) ([4]; Day 59): (75%)
- Leukocytes: Total Cells ([4]; Day 59): 12.4 ± 1.8 × 10^9/L
- Lymphocytes (% of Normal Control Value) ([4]; Day 59): (11%)
- Lymphocytes: % ([4]; Day 59): 57 ± 1.5 %
- Lymphocytes: Total Cells ([4]; Day 59): 7 ± 1 × 10^9/L
- Monocytes (% of Normal Control Value) ([4]; Day 59): (128%)
- Monocytes: % ([4]; Day 59): 7 ± 0.9 %
- Monocytes: Total Cells ([4]; Day 59): 0.92 ± 0.2 × 10^9/L
- Segmented Neutrophils (% of Normal Control Value) ([4]; Day 59): (73%)
- Segmented Neutrophils: % ([4]; Day 59): 26.7 ± 1 %
- Segmented Neutrophils: Total Cells ([4]; Day 59): 3.3 ± 0.4 × 10^9/L
- Stab Neutrophils (% of Normal Control Value) ([4]; Day 59): (100%)
- Stab Neutrophils: % ([4]; Day 59): 4.7 ± 0.6%
- Stab Neutrophils: Total Cells ([4]; Day 59): 0.6 ± 0.1 × 10^9/L
- Basophils (% of Normal Control Value) ([4]; Day 79): (29%)
- Basophils: % ([4]; Day 79): 0.3 ± 0.2%
- Basophils: Total Cells ([4]; Day 79): 0.02 ± 0.02 × 10^3/mg
- Eosinophils (% of Normal Control Value) ([4]; Day 79): (75%)
- Eosinophils: % ([4]; Day 79): 4 ± 0.9%
- Eosinophils: Total Cells ([4]; Day 79): 0.3 ± 0.1 × 10^9/L
- Leukocytes (% of Normal Control Value) ([4]; Day 79): (49%)
- Leukocytes: Total Cells ([4]; Day 79): 8.06 ± 0.9 × 10^9/L
- Lymphocytes (% of Normal Control Value) ([4]; Day 79): (7.7%)
- Lymphocytes: % ([4]; Day 79): 59 ± 2 %
- Lymphocytes: Total Cells ([4]; Day 79): 4.7 ± 1 × 10^9/L
- Monocytes (% of Normal Control Value) ([4]; Day 79): (100%)
- Monocytes: % ([4]; Day 79): 8 ± 0.8 %
- Monocytes: Total Cells ([4]; Day 79): 0.7 ± 0.1 × 10^9/L
- Segmented Neutrophils (% of Normal Control Value) ([4]; Day 79): (44%)
- Segmented Neutrophils: % ([4]; Day 79): 24.6 ± 1.3 %
- Segmented Neutrophils: Total Cells ([4]; Day 79): 2 ± 2 × 10^9/L
- Stab Neutrophils (% of Normal Control Value) ([4]; Day 79): (58%)
- Stab Neutrophils: % ([4]; Day 79): 4.4 ± 0.7 %
- Stab Neutrophils: Total Cells ([4]; Day 79): 0.35 ± 0.1 × 10^9/L
